Reference: US20250145585A1, “HETEROCYCLIC INHIBITORS OF IGF-1R FOR TREATMENT OF DISEASE” (HORIZON THERAPEUTICS IRELAND DAC, priority 2023, published 2025)

Tests used:
IGF-1R [1] = target: T1, IGF-1R (Homo sapiens, UniProt P08069); test: Example B-2: IGF-1R Assay (PathHunter cell lines, EC80 agonist challenge, chemiluminescent detection); format: cell-based; conditions: PathHunter cells, compound 60 minutes at 37° C., EC80 agonist 3 hours; read-out: IC50, Biological Activity against IGF-1R (Table B2)
T1 construct: expressed in transfected cells
Procedure, shortened: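 Read-out is PathHunter chemiluminescence, developed for 1 h at room temperature after a 3 h room-temperature EC80 agonist challenge that followed 60 min compound pre-treatment at 37° C (1% vehicle). IC50 comes from % inhibition normalized to EC80 and vehicle controls.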

IGF-1R [2] = target: T1, IGF-1R; test: Example B-1: IGF-1R Assay (PC3 cells stimulated with IGF1, AlphaLISA on cell lysates); format: cell-based; conditions: compound two hours, IGF1 200 ng/mL for 30 min, read-out: IC50, Biological Activity against IGF-1R (Table B1)
Procedure, shortened: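 IC50 from AlphaLISA read-out of lysed PC3 cells, percent inhibition normalized between vehicle and EC80 controls. Before lysis, cells had 2 h serum-free starvation, 2 h exposure to compound in 3× dilution series, and 30 min IGF1 stimulation at final 200 ng/mL.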

T1 sequence (P08069 31-1367): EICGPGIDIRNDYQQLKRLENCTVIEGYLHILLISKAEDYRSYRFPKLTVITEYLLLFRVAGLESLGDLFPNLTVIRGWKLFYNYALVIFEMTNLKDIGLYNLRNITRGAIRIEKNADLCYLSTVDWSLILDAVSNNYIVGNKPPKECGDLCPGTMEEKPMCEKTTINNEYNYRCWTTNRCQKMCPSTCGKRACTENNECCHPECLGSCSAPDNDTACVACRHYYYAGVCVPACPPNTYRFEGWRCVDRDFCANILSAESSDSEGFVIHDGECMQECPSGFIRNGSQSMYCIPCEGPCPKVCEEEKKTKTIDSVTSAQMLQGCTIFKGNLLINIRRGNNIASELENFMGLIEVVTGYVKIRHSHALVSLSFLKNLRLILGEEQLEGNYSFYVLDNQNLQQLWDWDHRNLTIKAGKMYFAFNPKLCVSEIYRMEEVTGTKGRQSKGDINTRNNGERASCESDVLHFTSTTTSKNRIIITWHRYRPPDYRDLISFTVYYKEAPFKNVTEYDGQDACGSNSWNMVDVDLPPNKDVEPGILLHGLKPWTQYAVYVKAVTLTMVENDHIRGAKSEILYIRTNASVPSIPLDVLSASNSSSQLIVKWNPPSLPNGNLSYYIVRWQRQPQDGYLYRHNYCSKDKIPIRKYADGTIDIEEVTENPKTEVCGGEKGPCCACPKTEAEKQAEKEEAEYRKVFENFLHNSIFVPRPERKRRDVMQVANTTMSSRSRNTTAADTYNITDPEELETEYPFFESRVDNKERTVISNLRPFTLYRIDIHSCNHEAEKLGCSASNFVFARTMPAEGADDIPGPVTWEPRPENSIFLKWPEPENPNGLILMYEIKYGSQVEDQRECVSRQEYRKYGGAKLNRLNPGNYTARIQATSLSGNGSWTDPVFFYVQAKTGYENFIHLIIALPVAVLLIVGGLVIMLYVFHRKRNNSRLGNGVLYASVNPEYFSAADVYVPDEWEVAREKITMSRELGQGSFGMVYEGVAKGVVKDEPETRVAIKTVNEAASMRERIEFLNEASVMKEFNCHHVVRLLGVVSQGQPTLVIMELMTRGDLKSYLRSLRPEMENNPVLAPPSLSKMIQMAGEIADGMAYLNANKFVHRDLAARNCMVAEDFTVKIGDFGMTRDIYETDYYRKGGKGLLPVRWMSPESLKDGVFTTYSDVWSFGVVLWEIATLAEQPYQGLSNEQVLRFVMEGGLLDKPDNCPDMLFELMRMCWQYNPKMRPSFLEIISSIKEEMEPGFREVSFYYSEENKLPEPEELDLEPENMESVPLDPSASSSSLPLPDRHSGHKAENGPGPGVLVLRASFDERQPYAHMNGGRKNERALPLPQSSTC

SMILES	IC50 (IGF-1R [1])	IC50 (IGF-1R [2])
CC(C)Nc1cc(CN2C(=O)N(c3ccc4c(C(F)(F)F)nn(C)c4c3)C(=O)C2(C)C)ccn1 [Compound 256, 1-((2-(isopropylamino)pyridin-4-yl)methyl)-5,5-dimethyl-3-(1-methyl-3-(trifluoromethyl)-1H-indazol-6-yl)imidazolidine-2,4-dione]	2000 to 10000 nM	500 to 2000 nM
CC(C)Nc1cc(CN2C(=O)N(c3ccc4c(c3)NC(=O)C43CC3)C(=O)C2(C)C)ccn1 [Compound 187, 1-((2-(isopropylamino)pyridin-4-yl)methyl)-5,5-dimethyl-3-(2′-oxospiro[cyclopropane-1,3′-indolin]-6′-yl)imidazolidine-2,4-dione]	2000 to 10000 nM	2000 to 10000 nM
CC(C)(C)c1ccc(N2C(=O)N(Cc3ccnc(NC4CCCCC4)c3)C(C)(C)C2=O)cc1 [Compound 264, 3-(4-(tert-butyl)phenyl)-1-((2-(cyclohexylamino)pyridin-4-yl)methyl)-5,5-dimethylimidazolidine-2,4-dione]	500 to 2000 nM	≤ 500 nM
COC1(c2ccc(N3C(=O)N(Cc4ccnc(NC(C)C)c4)C(C)(C)C3=O)cc2)CC1 [Compound 104, 1-((2-(isopropylamino)pyridin-4-yl)methyl)-3-(4-(1-methoxycyclopropyl)phenyl)-5,5-dimethylimidazolidine-2,4-dione]	500 to 2000 nM	≤ 500 nM
CC(C)(C#N)Nc1cc(CN2C(=O)N(c3ccc(C4(C(F)(F)F)CC4)cc3)C(=O)C2(C)C)ccn1 [Compound 109, 2-((4-((5,5-dimethyl-2,4-dioxo-3-(4-(1-(trifluoromethyl)cyclopropyl)phenyl)imidazolidin-1-yl)methyl)pyridin-2-yl)amino)-2-methylpropanenitrile]	≤ 500 nM	≤ 500 nM
CC1(C)C(=O)N(c2ccc(SC(F)(F)F)cc2)C(=O)N1Cc1ccnc(NC2CCOCC2)c1 [Compound 310, 5,5-dimethyl-1-((2-((tetrahydro-2H-pyran-4-yl)amino)pyridin-4-yl)methyl)-3-(4-((trifluoromethyl)thio)phenyl)imidazolidine-2,4-dione]	≤ 500 nM	≤ 500 nM
COC[C@@H](C)Nc1cc(CN2C(=O)N(c3ccc(C4(C(F)(F)F)CC4)cc3)C(=O)C2(C)C)ccn1 [Compound 114, (R)-1-((2-((1-methoxypropan-2-yl)amino)pyridin-4-yl)methyl)-5,5-dimethyl-3-(4-(1-(trifluoromethyl)cyclopropyl)phenyl)imidazolidine-2,4-dione]	≤ 500 nM	≤ 500 nM
C[C@@H](CC#N)Nc1cc(CN2C(=O)N(c3ccc(C(C)(C)C)cc3)C(=O)C2(C)C)ccn1 [Compound 278, (S)-3-((4-((3-(4-(tert-butyl)phenyl)-5,5-dimethyl-2,4-dioxoimidazolidin-1-yl)methyl)pyridin-2-yl)amino)butanenitrile]	500 to 2000 nM	≤ 500 nM
CC(C)Nc1cc(CN2C(=O)N(c3ccc(C4(C#N)CCCCC4)cc3)C(=O)C2(C)C)ccn1 [Compound 126, 1-(4-(3-((2-(isopropylamino)pyridin-4-yl)methyl)-4,4-dimethyl-2,5-dioxoimidazolidin-1-yl)phenyl)cyclohexane-1-carbonitrile]	500 to 2000 nM	500 to 2000 nM

Now from value to molecule:

IC50 (IGF-1R [1])	IC50 (IGF-1R [2])	SMILES
≤ 500 nM	≤ 500 nM	CC(C)Nc1cc(CN2C(=O)N(c3ccc(C4CC45CC5)cc3)C(=O)C2(C)C)ccn1 (stereo not shown) [Compound 97, 1-((2-(isopropylamino)pyridin-4-yl)methyl)-5,5-dimethyl-3-(4-(spiro[2.2]pentan-1-yl)phenyl)imidazolidine-2,4-dione]
≤ 500 nM	≤ 500 nM	CC(C)Nc1cc(CN2C(=O)N(c3ccc4c(c3)N(C)CC4(C)C)C(=O)C2(C)C)ccn1 [Compound 188, 1-((2-(isopropylamino)pyridin-4-yl)methyl)-5,5-dimethyl-3-(1,3,3-trimethylindolin-6-yl)imidazolidine-2,4-dione]
≤ 500 nM	≤ 500 nM	CC1(C)C(=O)N(c2ccc(S(=O)(=O)C(F)(F)F)cc2)C(=O)N1Cc1ccnc(N[C@H]2[C@@H]3COC[C@@H]32)c1 [Compound 319, 1-((2-(((1R,5S,6r)-3-oxabicyclo[3.1.0]hexan-6-yl)amino)pyridin-4-yl)methyl)-5,5-dimethyl-3-(4-((trifluoromethyl)sulfonyl)phenyl) imidazolidine-2,4-dione]
≤ 500 nM	≤ 500 nM	CC1(C)C(=O)N(c2ccc(S(=O)(=O)C(F)(F)F)cc2)C(=O)N1Cc1ccnc(NCC(F)F)c1 [Compound 317, 1-((2-((2,2-difluoroethyl)amino)pyridin-4-yl)methyl)-5,5-dimethyl-3-(4-((trifluoromethyl)sulfonyl)phenyl) imidazolidine-2,4-dione]
≤ 500 nM	≤ 500 nM	CC1(Nc2cc(CN3C(=O)N(c4ccc(C5(C(F)(F)F)CC5)cc4)C(=O)C3(C)C)ccn2)CC1 [Compound 138, 5,5-dimethyl-1-((2-((1-methylcyclopropyl)amino)pyridin-4-yl)methyl)-3-(4-(1-(trifluoromethyl)cyclopropyl)phenyl) imidazolidine-2,4-dione]
≤ 500 nM	≤ 500 nM	CC(c1ccnc(N)c1)N1C(=O)N(c2ccc(C3(C(F)(F)F)CC3)cc2)C(=O)C1(C)C (stereo not shown) [Compound 135, 1-(1-(2-aminopyridin-4-yl)ethyl)-5,5-dimethyl-3-(4-(1-(trifluoromethyl)cyclopropyl)phenyl) imidazolidine-2,4-dione]
≤ 500 nM	≤ 500 nM	CC(C)Nc1cc(CN2C(=O)N(c3ccc(C(C)(C)C)nc3)C(=O)C2(C)C)ccn1 [Compound 267, 3-(6-(tert-butyl)pyridin-3-yl)-1-((2-(isopropylamino)pyridin-4-yl)methyl)-5,5-dimethylimidazolidine-2,4-dione]
≤ 500 nM	≤ 500 nM	CC1(C)C(=O)N(c2ccc(C3(C(F)(F)F)CC3)cc2)C(=O)N1Cc1ccnc(N[C@H]2CCOC2)c1 [Compound 119, (S)-5,5-dimethyl-1-((2-((tetrahydrofuran-3-yl)amino)pyridin-4-yl)methyl)-3-(4-(1-(trifluoromethyl)cyclopropyl)phenyl) imidazolidine-2,4-dione]
≤ 500 nM	≤ 500 nM	CC1(C)C(=O)N(c2ccc(SC(F)(F)F)cc2)C(=O)N1Cc1ccnc2c1CCN2 [Compound 16, 1-((2,3-dihydro-1H-pyrrolo[2,3-b]pyridin-4-yl)methyl)-5,5-dimethyl-3-(4-((trifluoromethyl)thio)phenyl)imidazolidine-2,4-dione]
≤ 500 nM	≤ 500 nM	COC[C@@H](C)Nc1cc(CN2C(=O)N(c3ccc(S(=O)(=O)C(F)(F)F)cc3)C(=O)C2(C)C)ccn1 [Compound 318, (R)-1-((2-((1-methoxypropan-2-yl)amino)pyridin-4-yl)methyl)-5,5-dimethyl-3-(4-((trifluoromethyl)sulfonyl)phenyl) imidazolidine-2,4-dione]
≤ 500 nM	≤ 500 nM	CC1(C)C(=O)N(c2ccc(C3(C#N)CCC3)cc2)C(=O)N1Cc1ccnc(NC2CCOCC2)c1 [Compound 129, 1-(4-(4,4-dimethyl-2,5-dioxo-3-((2-((tetrahydro-2H-pyran-4-yl)amino)pyridin-4-yl)methyl)imidazolidin-1-yl)phenyl)cyclobutane-1-carbonitrile]
